Earlier results as cited in US12440501B2, “Cannabinoid compositions and methods of use thereof for immune modulation” (SRIN Therapeutics, Inc., priority 2019, dated 2025).
Values belong to the molecule of their own block, whether it stands above or below them.

Columns and labels:
[1] = system: xenograft tumors; conditions: regardless of Ras/Raf pathway deregulation
[2] = system: BRAF(V600E), BRAF(wild type), c-RAF, VEGFR2, PDGFR, CSF1R, RET, c-KIT, SRC, STE20; conditions: range over several intracellular kinases
[3] = system: VEGFR expression; conditions: doses of 1-5 mg/kg
[4] = system: HCT116
[5] = system: A549
[6] = system: DLD-1
[7] = system: Caco-2
[8] = system: HCT116; remark: listed apart in the source
[9] = biological target: GPR55 (Homo sapiens, UniProt Q9Y2T6)
[10] = mice, 120 mg/kg i.p.
[11] = system: ICAM-1 expression on A549; conditions: in vitro
[12] = system: melanoma; conditions: share of melanoma patients

GPR55, sequence (Q9Y2T6 whole entry, species assumed): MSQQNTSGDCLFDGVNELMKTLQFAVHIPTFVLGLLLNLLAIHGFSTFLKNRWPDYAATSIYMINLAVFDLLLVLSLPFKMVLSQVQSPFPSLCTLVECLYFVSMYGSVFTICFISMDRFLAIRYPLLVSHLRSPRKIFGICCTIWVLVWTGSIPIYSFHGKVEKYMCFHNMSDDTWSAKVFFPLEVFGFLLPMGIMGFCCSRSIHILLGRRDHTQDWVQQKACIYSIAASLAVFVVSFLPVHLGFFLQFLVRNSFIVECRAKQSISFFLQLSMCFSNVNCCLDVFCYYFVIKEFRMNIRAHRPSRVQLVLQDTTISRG

Molecule: Cn1cnc2c(F)c(Nc3ccc(Br)cc3F)c(C(=O)NOCCO)cc21 [MEK162]
inhibition of growth of xenograft tumors [1]: highly effective in inhibiting growth of xenograft tumors

Molecule: C=C(C)[C@@H]1CCC(C)=C[C@H]1c1c(O)cc(CCCCC)cc1O [cannabidiol]
VEGFR expression [3]: significantly reduce VEGFR expression | anti-proliferative effect [4]: significant anti-proliferative effect | inhibition of A549 invasion and metastasis [5]: profound inhibition | apoptosis [6]: induces apoptosis | anti-proliferative effect [7]: significant anti-proliferative effect | apoptosis [8]: induces apoptosis | activity at GPR55 [9]: antagonist | peak plasma levels [10]: 14.3 µg/mL | plasma levels [10]: 14.3 µg/mL | ICAM-1 expression [11]: upregulates ICAM-1 expression

Molecule: ipilimumab: FDA-approved immune checkpoint inhibitor targeting CTLA-4
responses in melanoma patients [12]: ~50%

Molecule: nivolumab: FDA-approved immune checkpoint inhibitor targeting PD-1
responses in melanoma patients [12]: ~50%

Molecule: pembrolizumab: FDA-approved immune checkpoint inhibitor targeting PD-1
responses in melanoma patients [12]: ~50%
